Literature values, collected in patent publication US20120263714A1, “SUBSTITUTED HALOPHENOXYBENZAMIDE DERIVATIVES” (BAYER INTELLECTUAL PROPERTY GMBH, priority 2009, published 2012).

How the values were obtained:
colon cancer = conditions: oral treatment, mouse models
MEK1/2 = MEK1/2 inhibitor, background statement

- IC50 (MEK1/2): low nanomolar range
Compound: O=C(NOCC1CC1)c1ccc(F)c(F)c1Nc1ccc(I)cc1Cl [CI-1040]
- colon cancer growth in vivo (colon cancer): inhibit colon cancer growth in vivo
